Test results from publication PMC7503767, “Alkoxyamines Designed as Potential Drugs against Plasmodium and Schistosoma Parasites” (Molecules, 2020).
Where two headings read alike, the source gives them in different places. Marks after values point to notes of the source that are not given here.

Legend:
[1] = test system: Adult S. mansoni; experiment: In vitro antischistosomal activity on adult worms; type: cell-based, Schistosoma mansoni; conditions: for Mean (±SD) survival time – Adult S. mansoni / Time for the death of 100% worms: 100 µg/mL; for Mean (±SD) survival time – Adult S. mansoni: observation up to 8 h (Table S1)
Text: The NMRI strain of Schistosoma mansoni was used for the experimentations. The parasite was maintained on an albino variety of Biomphalaria glabrata from Brazil (intermediate host) and in Golden Hamsters, Mesocricetus auratus (Janvier Labs, Le Genest-Saint-Isle, France). Detailed methods, for mollusk and hamster infections and for parasite recovery, were previously described.
Adult worms were recovered between 42 and 47 days after infection by hepatic perfusion technique. Twenty to fifty adult worms were disposed in 12-well Falcon® plate containing 2 mL of RPMI 1640 (supplemented with L-glutamine and Hepes 25 mM) and stored in an incubator chamber (37 °C; 5% CO2). Drug preparation started with dissolution of the drug in DMSO to give a 100 mg/mL stock solution. The dilution was complemented with Tween 80 and RPMI in order to obtain the following final ratio dilution: RPMI 1640/Tween 80/DMSO, 1000/0.95/3.8, v/v/v. The drug solution was added to Falcon plates that contained adult worms. The S. mansoni cultures were then incubated with each drug at a final concentration of 100 µg/mL. Positive control was carried out with a solution of praziquantel (Merck KGaA, Darmstadt, Germany) at a concentration of 100 µg/mL. Negative control was carried out with the same RPMI 1640/Tween 80/DMSO solution, but without any drug. Each test was performed in duplicate. Every hour, moving worms were counted in order to define the percentage of survivors. Parasites showing no body contractions during a 30 s observation were considered as dead. Observations were extended to 8 h. Mean survival times (± standard deviation) were calculated for each drug using Kaplan–Meier survival analyses.

[2] = test system: P. falciparum chloroquine-resistant strain FcB1-Columbia; experiment: Antiplasmodial screen at 10 µM and chemosensitivity assay (SYBR Green I), FcB1-Columbia; type: cell-based, Plasmodium falciparum; conditions: FcB1-Columbia strain, read-out: IC50 on P. falciparum
[3] = Homolysis of the NO–C bond measured by EPR
Method: Homolysis rate constants kd’ were measured by EPR and estimated using Equation (1) as reported many times in the literature. Further, Ea and kd were estimated using Equation (2). (1) ln([nitroxide]∞−[nitroxide]t/[nitroxide]∞)=−kd·t (2) Ea=−RT ln([…] kd′ )

[4] = adult S. mansoni, observation up to 8 h

Row | Compound | Mean (±SD) survival time – Adult S. mansoni [1] [h] | Time for the death of 100% worms [1, 4] [h] | other results
1 | 4-hydroxy-tetramethylpiperidine-N-oxyl [compound 8] | > 8 | > 8 | 
2 | CCOP(=O)(OCC)[C@@H](N(O[C@@H](COC(C)=O)c1ccccn1)C(C)(C)C)C(C)(C)C (relative stereo) [(RR/SS)-1j] | > 8 | > 8 | IC50 [2]: > 10 µM
3 | CCOP(=O)(OCC)[C@@H](N(O[C@H](C)n1cc[n+](C)c1)C(C)(C)C)C(C)(C)C.Cc1ccc(S(=O)(=O)[O-])cc1 (relative stereo) [(RR/SS)-1n] | > 8 | > 8 | 
4 | CCOP(=O)(OCC)[C@@H](N(O[C@H](COC(C)=O)c1ccccn1)C(C)(C)C)C(C)(C)C (relative stereo) [(RS/SR)-1j] | > 8 | > 8 | IC50 [2]: > 10 µM
5 | CCOP(=O)(OCC)C(N(OC(C)c1cc(-c2ccccn2)nc(-c2ccccn2)c1)C(C)(C)C)C(C)(C)C (centres unmarked) [1F] |  |  | IC50 [2]: > 10 µM
6 | CCOP(=O)(OCC)C(N(OC(C)c1ccncc1)C(C)(C)CO)C(C)(C)C (centres unmarked) [2a] | > 8 | > 8 | 
7 | CCOP(=O)(OCC)C(N(OC(C)c1cccnc1)C(C)(C)CO)C(C)(C)C (centres unmarked) [2b] | > 8 | > 8 | 
8 | CC(ON1C(C)(C)CC(O)CC1(C)C)c1ccncc1 (centres unmarked) [8a] | > 8 | > 8 | 
9 | CC(ON1C(C)(C)CC(O)CC1(C)C)c1cccnc1 (centres unmarked) [8b] | > 8 | > 8 | 
10 | CC(ON1C(C)(C)CC(O)CC1(C)C)c1ccccc1 (centres unmarked) [8z] | 1.9 ± 0.1 | 2 | 
11 | CC(ON1C(C)(C)CCCC1(C)C)c1cc(-c2ccccn2)nc(-c2ccccn2)c1 (centres unmarked) [9F] |  |  | activation energy Ea ([3]; MeOH/water 1:1 pH = 7.4): 131.9 ^k kJ/mol; re-estimated homolysis rate constant kd at 120 °C ([3]; MeOH/water 1:1 pH = 7.4): 0.7 ^k 10^−3 s^−1; half-lifetime t1/2 at 37 °C ([3]; MeOH/water 1:1 pH = 7.4 (aqueous medium)): 385 ^k day; homolysis rate constant kd′ ([3]; MeOH/water 1:1 pH = 7.4, 90 °C): 0.25 ^k 10^−4s^−1; activation energy Ea ([3]; t-BuPh): 131.0 ^k kJ/mol; half-lifetime t1/2 at 37 °C ([3]; t-BuPh): 385 ^k day; re-estimated homolysis rate constant kd at 120 °C ([3]; t-BuPh): 0.95 ^k 10^−3 s^−1; homolysis rate constant kd′ ([3]; t-BuPh, 111 °C): 3.7 ^k 10^−4s^−1
12 | CC(ON1C(C)(C)CCCC1(C)C)c1cccnc1 (centres unmarked) [9b] |  | 3 | 
13 | CC(ON1C(C)(C)CCCC1(C)C)c1ccccc1 (centres unmarked) [9z] | > 8 | > 8 | 
14 | CC(ON(C(C)(C)C)C(C)(C)C)c1ccncc1 (centres unmarked) [14a] | 2.5 ± 0.10 | 3 | 
15 | CCOP(=O)(OCC)C(N(OC(C)c1cccnc1)C(C)(C)C)C(C)(C)C (centres unmarked) [(RR/SS)-1b] |  |  | IC50 [2]: 22.5 µM
16 | CCOP(=O)(OCC)C(N(OC(C)c1ccccn1)C(C)(C)C)C(C)(C)C (centres unmarked) [(RR/SS)-1c] |  |  | IC50 [2]: > 10 µM
17 | CCOP(=O)(OCC)C(N(OC(C)c1cn(C)cn1)C(C)(C)C)C(C)(C)C (centres unmarked) [(RR/SS)-1q] | 3.3 ± 0.9 | 6 | 

Row | Compound | Mean (±SD) survival time – Adult S. mansoni [1] [h] | Time for the death of 100% worms [1, 4] [h] | other results
18 | CCOP(=O)(OCC)C(N(OC(C)c1cn(C)c[n+]1C)C(C)(C)C)C(C)(C)C.[I-] (centres unmarked) [(RR/SS)-1r] |  | 4 | 
19 | CCOP(=O)(OCC)C(N(OC(C)c1ccc(C)cc1)C(C)(C)C)C(C)(C)C (centres unmarked) [(RR/SS)-1s] | > 8 | > 8 | 
20 | CCOP(=O)(OCC)C(N(OC(C)c1cc(-c2ccccn2)nc(-c2ccccn2)c1)C(C)(C)CO[Si](C)(C)C(C)(C)C)C(C)(C)C (centres unmarked) [(RR/SS)-6F, Diethyl(1-((1-([2,2′:6′,2′′-terpyridin]-4′-yl)ethoxy)(1-((tert-butyldimethylsilyl)oxy)-2-methylpropan-2-yl)amino)-2,2-dimethylpropyl)phosphonate] |  |  | activation energy Ea ([3]; t-BuPh): 123.8 kJ/mol; half-lifetime t1/2 at 37 °C ([3]; t-BuPh): 24 days; re-estimated homolysis rate constant kd at 120 °C ([3]; t-BuPh): 8.5 10^−3 s^−1; homolysis rate constant kd′ ([3]; t-BuPh, 81 °C): 1.4 10^−4s^−1
21 | CCOP(=O)(OCC)C(N(OC(C)c1cc(-c2ccccc2)cc(-c2ccccc2)c1)C(C)(C)CO[Si](C)(C)C(C)(C)C)C(C)(C)C (centres unmarked) [(RR/SS)-6G, Diethyl(1-((1-([1,1′:3′,1′′-terphenyl]-5′-yl)ethoxy)(1-((tert-butyldimethylsilyl)oxy)-2-methylpropan-2-yl)amino)-2,2-dimethylpropyl)phosphonate] |  |  | half-life ([3]; half-lifetime t1/2 at 37 °C, t-BuPh): 33.4 days; activation energy Ea ([3]; t-BuPh): 125.5 kJ/mol; re-estimated homolysis rate constant kd at 120 °C ([3]; t-BuPh): 5.10 10^−3 s^−1; homolysis rate constant kd′ ([3]; t-BuPh, 92 °C): 2.7 10^−4s^−1
22 | CCOP(=O)(OCC)C(N(OC(C)c1cccnc1)C(C)(C)C)C(C)(C)C (centres unmarked) [(RS/SR)-1b] |  |  | IC50 ([2]; listed as (RS/SR)-1B): > 10 µM
23 | CCOP(=O)(OCC)C(N(OC(CN)c1ccncc1)C(C)(C)C)C(C)(C)C (centres unmarked) [(RS/SR)-1f] |  |  | IC50 [2]: > 10 µM
24 | CCOP(=O)(OCC)C(N(OC(C)n1cc[n+](C)c1)C(C)(C)C)C(C)(C)C.Cc1ccc(S(=O)(=O)[O-])cc1 (centres unmarked) [(RS/SR)-1n] | > 8 | > 8 | 
25 | CCOP(=O)(OCC)C(N(OC(C)c1cn(C)cn1)C(C)(C)C)C(C)(C)C (centres unmarked) [(RS/SR)-1q] | 1.3 ± 0.2 | 2 | 
26 | CCOP(=O)(OCC)C(N(OC(C)c1cn(C)c[n+]1C)C(C)(C)C)C(C)(C)C.[I-] (centres unmarked) [(RS/SR)-1r] |  | 6 | 
27 | CCOP(=O)(OCC)C(N(OC(C)c1ccc(C)cc1)C(C)(C)C)C(C)(C)C (centres unmarked) [(RS/SR)-1s] | 3.3 ± 0.1 | 4 | 
28 | CCOP(=O)(OCC)C(N(OC(C)c1cc(-c2ccccc2)cc(-c2ccccc2)c1)C(C)(C)CO)C(C)(C)C (centres unmarked) [(RS/SR)-2G, Diethyl(1-((1-([1,1′:3′,1′′-terphenyl]-5′-yl)ethoxy)(1-hydroxy-2-methylpropan-2-yl)amino)-2,2-dimethylpropyl)phosphonate] | > 8 | > 8 | activation energy Ea ([3]; MeOH/water 2:1 pH = 7.0): 122.1 kJ/mol; half-lifetime t1/2 at 37 °C ([3]; MeOH/water 2:1 pH = 7.0): 12.7 days; re-estimated homolysis rate constant kd at 120 °C ([3]; MeOH/water 2:1 pH = 7.0): 14.4 10^−3 s^−1; homolysis rate constant kd′ ([3]; MeOH/water 2:1 pH = 7.0, 81 °C): 2.3 10^−4s^−1; activation energy Ea ([3]; t-BuPh): 120.8 kJ/mol; half-lifetime t1/2 at 37 °C ([3]; t-BuPh): 7.5 days; re-estimated homolysis rate constant kd at 120 °C ([3]; t-BuPh): 21.6 10^−3 s^−1; homolysis rate constant kd′ ([3]; t-BuPh, 81 °C): 3.7 10^−4s^−1
29 | CCOP(=O)(OCC)C(N(OC(C)c1ccccn1)C(C)(C)CO)C(C)(C)C (centres unmarked) [(RS/SR)-2c] |  |  | IC50 [2]: > 10 µM
30 | CCOP(=O)(OCC)C(N(OC(C)c1ccccc1)C(C)(C)C(=O)O)C(C)(C)C (centres unmarked) [(RS/SR)-4z] | > 8 | > 8 | 
31 | CCOP(=O)(OCC)C(N(OC(C)c1ccccc1)C(C)(C)C(=O)OC)C(C)(C)C (centres unmarked) [(RS/SR)-5z] | > 8 | > 8 | 
32 | CCOP(=O)(OCC)C(N(OC(C)c1cc(-c2ccccn2)nc(-c2ccccn2)c1)C(C)(C)CO[Si](C)(C)C(C)(C)C)C(C)(C)C (centres unmarked) [(RS/SR)-6F, Diethyl(1-((1-([2,2′:6′,2′′-terpyridin]-4′-yl)ethoxy)(1-((tert-butyldimethylsilyl)oxy)-2-methylpropan-2-yl)amino)-2,2-dimethylpropyl)phosphonate] |  |  | activation energy Ea ([3]; t-BuPh): 121.7 kJ/mol; half-lifetime t1/2 at 37 °C ([3]; t-BuPh): 10 days; re-estimated homolysis rate constant kd at 120 °C ([3]; t-BuPh): 16.3 10^−3 s^−1; homolysis rate constant kd′ ([3]; t-BuPh, 81 °C): 2.7 10^−4s^−1
33 | CCOP(=O)(OCC)C(N(OC(C)c1cc(-c2ccccc2)cc(-c2ccccc2)c1)C(C)(C)CO[Si](C)(C)C(C)(C)C)C(C)(C)C (centres unmarked) [(RS/SR)-6G, Diethyl(1-((1-([1,1′:3′,1′′-terphenyl]-5′-yl)ethoxy)(1-((tert-butyldimethylsilyl)oxy)-2-methylpropan-2-yl)amino)-2,2-dimethylpropyl)phosphonate] |  |  | activation energy Ea ([3]; t-BuPh): 124.7 kJ/mol; re-estimated homolysis rate constant kd at 120 °C ([3]; t-BuPh): 6.50 10^−3 s^−1; homolysis rate constant kd′ ([3]; t-BuPh, 92 °C): 3.5 10^−4s^−1
34 | O=C(C1CCCCC1)N1CC(=O)N2CCc3ccccc3C2C1 (centres unmarked) [Praziquantel, praziquantel, reference compound] | 1.0 ± 0.05 | 1 | S. mansoni Mean Survival Time ([1]; adult S. mansoni, single dose 100 µg/mL, observation up to 8 h): 1.0 ± 0.05 h
